The values below come from patent US12599561B2, “Localized immunosuppression of allografts for peripheral nerve repair” (UNIVERSITY OF WYOMING, priority 2018, dated 2026).

Data set [1] has as its system immune cells. The conditions noted are these: cited from earlier work.
Data set [2] concerns DRGs, motor neurons, and Schwann cells. The settings on record: 72 h. Here is the method: It is contemplated that delivery of immunosuppressive agents function within a favorable therapeutic window. PNs are comprised of three major nervous system cell types, motor neurons, sensory neurons, and Schwann cells. […] FIG. 1B illustrates data regarding the toxicity of tacrolimus to DRGs, motor neurons, and Schwann cells. FIG. 1C illustrates data regarding the toxicity of prednisolone to DRGs, motor neurons, and Schwann cells.
Cells (DRGs, motor neurons, and Schwann cells) were cultured for 72 hours in various concentration of the immunosuppressive drugs and viability was evaluated using the Alamar blue viability assay. ISV's were diluted into media using a maximum of 1% dimethylsulfoxide (DMSO).
FIG. 2B illustrates data regarding the viability of DRGs, motor neurons, and Schwann cells cultured in about 10 μM tracrolimus with differing concentrations of prednisolone.

Consider `C=CC[C@@H]1/C=C(\C)C[C@H](C)C[C@H](OC)[C@H]2O[C@@](O)(C(=O)C(=O)N3CCCC[C@H]3C(=O)O[C@H](/C(C)=C/[C@@H]3CC[C@@H](O)[C@H](OC)C3)[C@H](C)[C@@H](O)CC1=O)[C@H](C)C[C@@H]2OC` [Tacrolimus, tacrolimus], for which, in data set [1], the “effective dose for inhibiting activation and proliferation of immune cells” value was 50 to 100 µM; the “in vitro effective concentration on immune cells” value was 0.5 to 1.0 nM. In addition, in data set [2], the “Measures in vitro tolerated concentrations on PN cells” value is 10 to 25 µM and the “dose tolerated by the cells (up to)” value fell in the range of 10 to 25 µM.
Regarding `C[C@]12C=CC(=O)C=C1CC[C@@H]1[C@@H]2[C@@H](O)C[C@@]2(C)[C@H]1CC[C@]2(O)C(=O)CO` [Prednisolone, prednisolone], in data set [1], the “effective dose for inhibiting activation and proliferation of immune cells” value is given as “greater than 240 μM”; the “in vitro effective concentration on immune cells” value was 240 nM. In addition, in data set [2], the “Measures in vitro tolerated concentrations on PN cells” value was 200 µM and the “dose tolerated by the cells (up to)” value was “about 200 μM”.
